{
  "source": "the supplement of paper PMC13207355",
  "conditions_in_all_cases": "exposure time: 72 h",
  "key": {"[1]": {"test_system": "E13 (patient-derived glioblastoma stem cells of classical subtype)", "test": "surviving fraction (nuclei count normalised to DMSO); higher = more cells surviving (less toxic)"}, "[2]": {"test_system": "E21 (patient-derived glioblastoma stem cells of mesenchymal subtype)", "test": "surviving fraction (nuclei count normalised to DMSO); higher = more cells surviving (less toxic)"}, "[3]": {"test_system": "E28 (patient-derived glioblastoma stem cells of classical subtype)", "test": "surviving fraction (nuclei count normalised to DMSO); higher = more cells surviving (less toxic)"}, "[4]": {"test_system": "E31 (patient-derived glioblastoma stem cells of proneural subtype)", "test": "surviving fraction (nuclei count normalised to DMSO); higher = more cells surviving (less toxic)"}, "[5]": {"test_system": "E34 (patient-derived glioblastoma stem cells of proneural subtype)", "test": "surviving fraction (nuclei count normalised to DMSO); higher = more cells surviving (less toxic)"}, "[6]": {"test_system": "E57 (patient-derived glioblastoma stem cells of mesenchymal subtype)", "test": "surviving fraction (nuclei count normalised to DMSO); higher = more cells surviving (less toxic)"}, "[7]": {"test_system": "FT3469 (normal neural stem cell line)", "test": "surviving fraction (nuclei count normalised to DMSO); higher = more cells surviving (less toxic)"}, "[8]": {"test_system": "E13", "test": "phenotypic distance (Euclidean, principal components) from DMSO controls (arbitrary units); higher = stronger morphological change"}, "[9]": {"test_system": "E21", "test": "phenotypic distance (Euclidean, principal components) from DMSO controls (arbitrary units); higher = stronger morphological change"}, "[10]": {"test_system": "E28", "test": "phenotypic distance (Euclidean, principal components) from DMSO controls (arbitrary units); higher = stronger morphological change"}, "[11]": {"test_system": "E31", "test": "phenotypic distance (Euclidean, principal components) from DMSO controls (arbitrary units); higher = stronger morphological change"}, "[12]": {"test_system": "E34", "test": "phenotypic distance (Euclidean, principal components) from DMSO controls (arbitrary units); higher = stronger morphological change"}, "[13]": {"test_system": "E57", "test": "phenotypic distance (Euclidean, principal components) from DMSO controls (arbitrary units); higher = stronger morphological change"}, "[14]": {"test_system": "FT3469", "test": "phenotypic distance (Euclidean, principal components) from DMSO controls (arbitrary units); higher = stronger morphological change"}},
  "data": [
    {"smiles": "O=C(Oc1cccc2cccnc12)c1ccccc1", "note": "[Benzoxiquine]", "values": [
      {"measurement": "surviving fraction", "setting": "[1]; 4.1 nM", "value": 0.876},
      {"measurement": "surviving fraction", "setting": "[1]; 12.3 nM", "value": 0.962},
      {"measurement": "surviving fraction", "setting": "[1]; 37 nM", "value": 1.05},
      {"measurement": "surviving fraction", "setting": "[1]; 111.1 nM", "value": 0.997},
      {"measurement": "surviving fraction", "setting": "[1]; 333.3 nM", "value": 1.09},
      {"measurement": "surviving fraction", "setting": "[1]; 1000 nM", "value": 0.85},
      {"measurement": "surviving fraction", "setting": "[1]; 3000 nM", "value": 0.000925},
      {"measurement": "surviving fraction", "setting": "[2]; 4.1 nM", "value": 0.962},
      {"measurement": "surviving fraction", "setting": "[2]; 12.3 nM", "value": 1.11},
      {"measurement": "surviving fraction", "setting": "[2]; 37 nM", "value": 1.13},
      {"measurement": "surviving fraction", "setting": "[2]; 111.1 nM", "value": 1.1},
      {"measurement": "surviving fraction", "setting": "[2]; 333.3 nM", "value": 0.981},
      {"measurement": "surviving fraction", "setting": "[2]; 1000 nM", "value": 1.04},
      {"measurement": "surviving fraction", "setting": "[2]; 3000 nM", "value": 0},
      {"measurement": "surviving fraction", "setting": "[3]; 4.1 nM", "value": 0.997},
      {"measurement": "surviving fraction", "setting": "[3]; 12.3 nM", "value": 1.14},
      {"measurement": "surviving fraction", "setting": "[3]; 37 nM", "value": 1.07},
      {"measurement": "surviving fraction", "setting": "[3]; 111.1 nM", "value": 1.1},
      {"measurement": "surviving fraction", "setting": "[3]; 333.3 nM", "value": 1.07},
      {"measurement": "surviving fraction", "setting": "[3]; 1000 nM", "value": 1.27},
      {"measurement": "surviving fraction", "setting": "[3]; 3000 nM", "value": 0.00427},
      {"measurement": "surviving fraction", "setting": "[4]; 4.1 nM", "value": 0.993},
      {"measurement": "surviving fraction", "setting": "[4]; 12.3 nM", "value": 0.838},
      {"measurement": "surviving fraction", "setting": "[4]; 37 nM", "value": 0.975},
      {"measurement": "surviving fraction", "setting": "[4]; 111.1 nM", "value": 1.19},
      {"measurement": "surviving fraction", "setting": "[4]; 333.3 nM", "value": 1.04},
      {"measurement": "surviving fraction", "setting": "[4]; 1000 nM", "value": 1.04},
      {"measurement": "surviving fraction", "setting": "[4]; 3000 nM", "value": 0},
      {"measurement": "surviving fraction", "setting": "[5]; 4.1 nM", "value": 0.906},
      {"measurement": "surviving fraction", "setting": "[5]; 12.3 nM", "value": 0.899},
      {"measurement": "surviving fraction", "setting": "[5]; 37 nM", "value": 0.981},
      {"measurement": "surviving fraction", "setting": "[5]; 111.1 nM", "value": 1.1},
      {"measurement": "surviving fraction", "setting": "[5]; 333.3 nM", "value": 1.07},
      {"measurement": "surviving fraction", "setting": "[5]; 1000 nM", "value": 0.844},
      {"measurement": "surviving fraction", "setting": "[5]; 3000 nM", "value": 0.00175},
      {"measurement": "surviving fraction", "setting": "[6]; 4.1 nM", "value": 0.965},
      {"measurement": "surviving fraction", "setting": "[6]; 12.3 nM", "value": 0.992},
      {"measurement": "surviving fraction", "setting": "[6]; 37 nM", "value": 0.997},
      {"measurement": "surviving fraction", "setting": "[6]; 111.1 nM", "value": 1.01},
      {"measurement": "surviving fraction", "setting": "[6]; 333.3 nM", "value": 0.999},
      {"measurement": "surviving fraction", "setting": "[6]; 1000 nM", "value": 1.02},
      {"measurement": "surviving fraction", "setting": "[6]; 3000 nM", "value": 0.00305},
      {"measurement": "surviving fraction", "setting": "[7]; 4.1 nM", "value": 1.05},
      {"measurement": "surviving fraction", "setting": "[7]; 12.3 nM", "value": 0.924},
      {"measurement": "surviving fraction", "setting": "[7]; 37 nM", "value": 1.06},
      {"measurement": "surviving fraction", "setting": "[7]; 111.1 nM", "value": 1.03},
      {"measurement": "surviving fraction", "setting": "[7]; 333.3 nM", "value": 1.21},
      {"measurement": "surviving fraction", "setting": "[7]; 1000 nM", "value": 1},
      {"measurement": "surviving fraction", "setting": "[7]; 3000 nM", "value": 0.00288},
      {"measurement": "phenotypic distance", "setting": "[8]; 4.1 nM", "value": 1.08},
      {"measurement": "phenotypic distance", "setting": "[8]; 12.3 nM", "value": 1.14},
      {"measurement": "phenotypic distance", "setting": "[8]; 37 nM", "value": 0.78},
      {"measurement": "phenotypic distance", "setting": "[8]; 111.1 nM", "value": 0.506},
      {"measurement": "phenotypic distance", "setting": "[8]; 333.3 nM", "value": 0.775},
      {"measurement": "phenotypic distance", "setting": "[8]; 1000 nM", "value": 0.864},
      {"measurement": "phenotypic distance", "setting": "[8]; 3000 nM", "value": 19.1},
      {"measurement": "phenotypic distance", "setting": "[9]; 4.1 nM", "value": 1.17},
      {"measurement": "phenotypic distance", "setting": "[9]; 12.3 nM", "value": 0.851},
      {"measurement": "phenotypic distance", "setting": "[9]; 37 nM", "value": 1.34},
      {"measurement": "phenotypic distance", "setting": "[9]; 111.1 nM", "value": 0.833},
      {"measurement": "phenotypic distance", "setting": "[9]; 333.3 nM", "value": 1.24},
      {"measurement": "phenotypic distance", "setting": "[9]; 1000 nM", "value": 0.732},
      {"measurement": "phenotypic distance", "setting": "[9]; 3000 nM", "value": 23.9},
      {"measurement": "phenotypic distance", "setting": "[10]; 4.1 nM", "value": 1.39},
      {"measurement": "phenotypic distance", "setting": "[10]; 12.3 nM", "value": 0.791},
      {"measurement": "phenotypic distance", "setting": "[10]; 37 nM", "value": 1.24},
      {"measurement": "phenotypic distance", "setting": "[10]; 111.1 nM", "value": 0.938},
      {"measurement": "phenotypic distance", "setting": "[10]; 333.3 nM", "value": 0.845},
      {"measurement": "phenotypic distance", "setting": "[10]; 1000 nM", "value": 1.59},
      {"measurement": "phenotypic distance", "setting": "[10]; 3000 nM", "value": 17.6},
      {"measurement": "phenotypic distance", "setting": "[11]; 4.1 nM", "value": 1.12},
      {"measurement": "phenotypic distance", "setting": "[11]; 12.3 nM", "value": 1.22},
      {"measurement": "phenotypic distance", "setting": "[11]; 37 nM", "value": 0.854},
      {"measurement": "phenotypic distance", "setting": "[11]; 111.1 nM", "value": 1.7},
      {"measurement": "phenotypic distance", "setting": "[11]; 333.3 nM", "value": 1.32},
      {"measurement": "phenotypic distance", "setting": "[11]; 1000 nM", "value": 1.22},
      {"measurement": "phenotypic distance", "setting": "[11]; 3000 nM", "value": 15.5},
      {"measurement": "phenotypic distance", "setting": "[12]; 4.1 nM", "value": 0.673},
      {"measurement": "phenotypic distance", "setting": "[12]; 12.3 nM", "value": 0.614},
      {"measurement": "phenotypic distance", "setting": "[12]; 37 nM", "value": 0.56},
      {"measurement": "phenotypic distance", "setting": "[12]; 111.1 nM", "value": 0.455},
      {"measurement": "phenotypic distance", "setting": "[12]; 333.3 nM", "value": 0.815},
      {"measurement": "phenotypic distance", "setting": "[12]; 1000 nM", "value": 1.42},
      {"measurement": "phenotypic distance", "setting": "[12]; 3000 nM", "value": 19.8},
      {"measurement": "phenotypic distance", "setting": "[13]; 4.1 nM", "value": 0.568},
      {"measurement": "phenotypic distance", "setting": "[13]; 12.3 nM", "value": 0.458},
      {"measurement": "phenotypic distance", "setting": "[13]; 37 nM", "value": 0.358},
      {"measurement": "phenotypic distance", "setting": "[13]; 111.1 nM", "value": 0.673},
      {"measurement": "phenotypic distance", "setting": "[13]; 333.3 nM", "value": 0.716},
      {"measurement": "phenotypic distance", "setting": "[13]; 1000 nM", "value": 0.72},
      {"measurement": "phenotypic distance", "setting": "[13]; 3000 nM", "value": 13.7},
      {"measurement": "phenotypic distance", "setting": "[14]; 4.1 nM", "value": 0.579},
      {"measurement": "phenotypic distance", "setting": "[14]; 12.3 nM", "value": 0.893},
      {"measurement": "phenotypic distance", "setting": "[14]; 37 nM", "value": 0.62},
      {"measurement": "phenotypic distance", "setting": "[14]; 111.1 nM", "value": 0.641},
      {"measurement": "phenotypic distance", "setting": "[14]; 333.3 nM", "value": 1.07},
      {"measurement": "phenotypic distance", "setting": "[14]; 1000 nM", "value": 0.688},
      {"measurement": "phenotypic distance", "setting": "[14]; 3000 nM", "value": 14.3}
    ]}
  ]
}
